Here are results for 2 sequences from paper PMC11969024, “Development of chemokine network inhibitors using combinatorial saturation mutagenesis” (Communications Biology, 2025).

In the experiment the test system is activated CD8+T-cells (ATC). The experiment is described as follows: Activated T-cell (ATC) migration induced by individual chemokines, inhibition by peptide. It counts as cell-based, human. To be noted: for inhibition of CCL19, CCL21, CXCL9, and CXCL11-induced migration of ATCs compared to parental HD2: peptide 10 uM, chemokines at EC80, Dunnett's test. As for the experimental part: Cell lines were confirmed mycoplasma free by monthly testing using a MycoAlert^TM kit (LT07-118, Lonza) following the manufacturer’s instructions. THP1 cells: THP1 cells (ECACC 88081201, a human monocyte leukemia cell line[51]) were obtained from ECACC and were cultured in T175 flasks at 0.3-1 × 10^6 cells/mL in Roswell Park Memorial Institute (RPMI) 1640 medium (R0883, Sigma) with 10% FBS (F9665, Sigma) and 5mM L-glutamine (G7513, Sigma), 37 °C, 5% CO2. J:CXCR1 cells: The J:CXCR1 cell line was cultured in the same manner as THP1 cells at 0.15-1 × 10^6 cells per mL[37]. Activated T-cells: T-cells were isolated, activated and expanded as follows. Briefly, density gradient centrifugation using Lymphoprep^TM density gradient medium (07801, […] Technologies) and a SepMate^TM isolation tube (85450, […] Technologies) was used to isolate peripheral blood mononuclear cells from human leukocyte cones. Two rounds of purification using a human CD8 + T-cell isolation kit (480011, BioLegend) were used to isolate CD8 + T-cells from peripheral blood mononuclear cells. Activation of CD8 + T-cells was performed in ImmunoCult^TM-XF T-cell expansion medium (10982, […] Technologies) with an anti-CD3/anti-CD28 T-cell activator at 25 μl/ml (10991, […] Technologies), supplemented with 10 ng/ml recombinant human IL-2 (200-02, PeproTech) with 1% penicillin/streptomycin. T-cells were passaged every 2–3 days in TexMACS medium (130-097-196, Miltenyi Biotec), supplemented with 10 ng/ml human IL-2 (200-05-250, Peprotech) and incubated at 37 °C in 5% CO2. CD8 + T-cells were frozen at day 10-13 after initial activation, at 20×10^6 cell/ml in TexMACS medium supplemented with 10% DMSO (D2650, Sigma) in liquid nitrogen. Activated CD8^+ T-cells were recovered in TexMACs medium at 0.3 × 10^6 cell/ml and incubated at 37 °C in 5% CO2, 24 h prior to use. For buffy coat experiments a mixture of primary human monocytes, granulocytes and lymphocytes was isolated from human buffy coat. Briefly, RBCs were sedimented in HetaSep (07806, […] Technologies) with 1 mL of HetaSep per 5 mL of blood for 15 min at 37 °C. The buffy coat layer was collected from the top and washed in 50 ml MACS buffer (PBS (P4417, Sigma), 0.5% BSA (A7030, Sigma), 0.075% EDTA (E5134, Sigma), pH 7.2), by centrifugation at 2000 g for 10 min at room temperature. The pellet was resuspended in 10 mL of 1x RBC lysis solution (130-094-183, Miltenyi Biotec) and lysed for 10 min at room temperature. The cells were then washed in MACS buffer twice as above. The final pellet was resuspended in 1 mL of MACS buffer per 5 mL of initial blood volume and counted using cell size FSC-H/SSC-H parameters with gate settings previously defined by immunostaining (see below). The leukocytes were then resuspended in assay buffer for cell migration and used within 30 min of isolation.
Cell counts were determined using an ATTUNE NxT Flow Cytometer with Cytkick autosampler (ThermoFisher), based on cell size parameters FSC-H/SSC-H, with previously defined gate settings. FSC-H/SSC-H gate settings for primary white blood cells from buffy coats were determined using flow cytometry to establish the granulocyte, monocyte and lymphocyte populations (Supplementary Fig. 13). Briefly, cells were labelled with anti-CD3 (Miltenyi Biotec, 130-113-135) to identify the T cell population, anti-CD14 (Miltenyi Biotec, 130-110-578) to identify the monocyte population, and with anti-CD16 (Miltenyi Biotec, 130-113-951) to identify the granulocyte population. Negative control cells were labelled with anti-human IgG1 (Miltenyi Biotec, 130-113-434). All antibodies were allophycocyanin (APC) conjugated. 100,000 white blood cells were added to Eppendorf tubes and centrifuged at 300 g for 3 min. The supernatant was discarded, and the cells resuspended in 98 µL of MACS buffer (1× PBS, 2 mM EDTA and 0.5% BSA, sterile filtered). 2 µl of antibody was added to the cells. […]

Regarding “EEDDYWAYAPLTCYFT [HD2T6W, HD2 point mutant]”, the “inhibition of CCL19, CCL21, CXCL9, and CXCL11-induced migration of ATCs compared to parental HD2” value was “significant improvement in inhibition”. As for “EEDDWTAYAPLTCYFT [HD2Y5W, HD2 point mutant]”, the “inhibition of CCL19, CCL21, CXCL9, and CXCL11-induced migration of ATCs compared to parental HD2” value is “significant improvement in inhibition”. Moreover, where the note is “ATC migration, statement of the discussion”, the “inhibition of chemokines e.g. CCL19, CCL21 and CXCL11” value was “de novo inhibition”.
